Laboratory results from patent publication US5246949A, “Preparation for endermism containing dopamine derivatives” (Sansho Co., Ltd., priority 1989, dated 1993).
Where a name gives a salt, the structure may show the parent alone. Read-outs that look alike come from different tables or passages of the source.

Key:
[1] = in vitro skin permeability test (horizontal membrane type in vitro diffusion cell, HPLC determination); details: for skin permeability on adding a lactic acid ester: Test Example 1, FIG. 1; for skin permeability on adding a higher alcohol: Test Examples 5 to 8, FIGS. 5 to 8, 10% by weight
Method: 100 mg of each dopamine derivative hydrochloride as shown in Table 1 was weighed and 900 mg of propylene glycol was added thereto to obtain a solution or suspension containing 10% by weight of each dopamine derivative hydrochloride. These solutions and suspensions were referred to as comparative samples a to e, respectively.
Then 50 mg (in the cases of invention samples A to D) or 100 mg (in the cases of invention samples E to H) of each lactic acid ester or fatty acid monoglyceride as shown in Table 1 was added thereto. Further, propylene glycol was added to make the total amount 1000 mg. Thus, a solution or suspension containing 10% by weight of each dopamine derivative hydrochloride was obtained. These solutions and suspensions were referred to as invention samples A to H.
100 mg of each dopamine derivative hydrochloride as shown in Table 2 was weighed and 900 mg of polyethylene glycol 400 was added thereto. Thus a solution or suspension containing 10% by weight of each dopamine derivative hydrochloride was obtained. These solutions and suspensions were referred to as comparative samples f to i respectively.
Further polyethylene […] was added thereto to make the total amount 1000 mg. Thus, a solution or suspension containing 10% by weight of each dopamine derivative hydrochloride was prepared. These solutions and suspensions were referred to as invention samples I to N, respectively.
The abdominal hair of a male Wister rat, weighing 170 to 200 g and 7 weeks of age, was removed under anesthesia. […] Next, the whole abdominal skin was cleansed with 70% ethanol and then peeled off under anesthesia.
The peeled skin was fixed on the lid of a horizontal membrane type in vitro diffusion cell (penetration area: 7.54 cm^2) in such a manner that the epidermis served as the donor face. As a receiver solution, 50 ml of physiological saline solution or a 30% aqueous solutioh of polyethylene glycol 400 was employed. On the donor side, 0.5 g of a solution of each sample was applied by adding dropwise. Then the lid was fixed in a receptor while paying attention so no bubbles remained in the derm side, followed by storing it in an incubator maintained at 32° C. The receptor solution was stirred with a stirrer and 0.5 ml portions thereof were collected with the lapse of time so as to determine the dopamine derivative contained therein. The determination was effected by high performance liquid chromatography. (iii) Test Results

[2] = oral or percutaneous; cited from earlier work
[3] = cited from earlier work
[4] = 5% aqueous solution of glyceryl monocaprylate; Okumura et al. 1989; cited from earlier work
[5] = oral drug; E. Lodola et al. 1986; cited from earlier work
[6] = SOL I. Rajifer et al. 1986; cited from earlier work
[7] = 10% by weight in propylene glycol, 32° C.
[8] = Test Examples 2 to 4, FIGS. 2 to 4, 10% by weight in propylene glycol, 32° C.

In the case of `CC(C)C(=O)Oc1ccc(CCN)cc1OC(=O)C(C)C.Cl` [3,4-di-O-isobutyryldopamine hydrochloride], the “skin permeability on adding a lactic acid ester” value [1, 7] is reported as “extremely elevated” and the “skin permeability on adding a higher alcohol” value ([1]; 32° C.) is reported as “extremely elevated”.

For `CNCCc1ccc(OC(=O)C(C)C)c(OC(=O)C(C)C)c1` [3,4-di-O-isobutyrylepinine hydrochloride], the “skin permeability on adding a lactic acid ester or a fatty acid monoglyceride” value [1, 8] was “extremely elevated” and the “skin permeability on adding a higher alcohol” value ([1]; 32° C.) was “extremely elevated”.

For `CCCC(=O)Oc1ccc(CCN)cc1OC(=O)CCC` [3,4-di-O-n-butyryldopamine hydrochloride], the “decomposition after penetrating into the skin” value [1] was “considerably decomposed” and the “skin permeability on adding a lactic acid ester or a fatty acid monoglyceride” value [1] was “extremely elevated”.

With `Cl.NCCc1ccc(OC(=O)c2cccnc2)c(OC(=O)c2cccnc2)c1` [3,4-di-O-nicotinoyldopamine hydrochloride] the “skin permeability on adding a lactic acid ester or a fatty acid monoglyceride” value [1, 8] was “extremely elevated” and the “skin permeability on adding a higher alcohol” value ([1]; 32° C.) was “extremely elevated”.

With `CC(C)(C)C(=O)Oc1ccc(CCN)cc1OC(=O)C(C)(C)C.Cl` [3,4-di-O-pivaloyldopamine hydrochloride] the “skin permeability on adding a lactic acid ester” value [1, 7] was “extremely elevated” and the “skin permeability on adding a higher alcohol” value ([1]; 32° C.) was “extremely elevated”.

For `NCCc1ccc(O)c(O)c1` [Dopamine], the “absorption when administered orally or percutaneously” value [2] is given as “scarcely absorbed”.

In the case of `CC(CCc1ccc(O)cc1)NCCc1ccc(O)c(O)c1` (centres unmarked) [dobutamine], the “absorption when administered orally or percutaneously” value [2] is given as “scarcely absorbed”.

For `Cl.NCCc1ccc(O)c(O)c1` [dopamine hydrochloride], the skin damage ([3]; if percutaneously absorbed) is listed as “causes skin damage”, the “irritation to the skin” value ([3]; percutaneous) is listed as “highly irritative to the skin” and the “percutaneous penetration rate relative to dopamine hydrochloride alone” value [4] is listed as 34 times.

In the case of `CNCCc1ccc(OC(=O)C(C)C)c(OC(=O)C(C)C)c1` [ibopamine], the half-life in plasma [5] is given as 1.54 h and the “duration of the effect on improvement of the circulation (cardiac coefficient)” value [6] is given as 3 to 6 h.
